Assay [1] deals with mouse model. Particulars: cited from earlier work.
Assay [2] concerns experimental autoimmune encephalomyelitis (EAE) in mice. The assay can be described thus: MOG-induced EAE in mice, clinical disability scoring. In kind it is in vivo, C57BL/6 female mice. To be noted: for EAE clinical disability: TSA 7.5 mg/kg/dose/d i.p., apparent in the chronic (days 20-40) phase. An excerpt: FIG. 1—Efficacy of HDAC inhibitor treatment in reducing the clinical manifestations of experimental autoimmune encephalomyelitis (EAE) in mice. Mean clinical scores reflect reduced clinical disability by TSA in the neurodegenerative phase of EAE (● TSA-treated; ◯ vehicle-treated) (*P<0.05 by Fisher's protected least significant difference (PLSD) test). The remission phase lasted from days 19 to 34 following disease induction in a first experiment, days 21 to 32 in a second experiment. Animals were scored for signs of disability using the following widely used scale: 1, limp tail or isolated weakness of gait without limp tail; 2, partial hind leg paralysis; 3, total hind leg or partial hind and front leg paralysis and/or urinary incontinence; 4, total hind leg and partial front leg paralysis; 5, moribund or dead animal (with minor modifications from Issazadeh et al. (1998)). The definitions used were: (1) mean peak remission: mean of maximal score reached during remission, and (2) mean % days of severity: mean % of days with scores ≧2.
Experimental autoimmune encephalomyelitis (EAE) is the most widely accepted animal model for multiple sclerosis. […] Medications that currently modify the disease course in humans also modify the disease course in the animal model. The inventor has used the C57BL/6J mice (female mice 6-8 weeks old from Jackson Laboratories) for the experiments, which involve the administration of myelin oligodendrocyte glycoprotein (MOG), a myelin antigen, that induces autoimmunity against the brain tissue. EAE can also be induced in laboratory mice and rats using other myelin antigens.
Efficacy of HDAC inhibitor treatment in reducing the clinical manifestations of experimental autoimmune encephalomyelitis (EAE) in mice. The inventor injected 6-8 week-old C57BL/6 female mice (Jackson Laboratories, Bar Harbor, Me.) subcutaneously with 150 μg myelin oligodendrocyte glycoprotein (MOG)35-55 peptide (Quality Controlled Biochemicals, Hopkinton, Mass.) in PBS and CFA containing 0.4 mg of Mycobacterium tuberculosis (H37Ra, Difco, Detroit, Mich.), and i.p. on days 1 and 3 with 200 ng Pertussis (List Biological, Campbell, Calif.). TSA (7.5 mg/kg/dose/d i.p.) (Biomol, Plymouth Meeting, Pa. and Wako, Richmond, Va.) in PBS (9):DMSO (1) vehicle was begun on day 4. Ten mice were given vehicle and 9 were given TSA in a first experiment, wherease a second experiment utilized 15 per group.

Assay [3] deals with caspases 3 and 9. The assay can be described thus: Western analysis of caspases in CNS tissue of EAE mice. The class given is in vivo. An excerpt: FIGS. 7A-B—Densitometry of bands from western analysis of brain tissue proteins isolated from HDAC inhibitor-treated and vehicle-treated mice. […] Activated caspase 9 is decreased by oral sodium phenylbutyrate (SPB) and by intraperitoneal TSA. Both findings correlate with clinical improvement in these animal models.
Mechanisms of protection by HDAC inhibitors. (1) Decreased caspase activation leading to enhanced neuronal survival. […] Caspase 3 is known to be activated in rat EAE spinal cords (Ahmed et al., 2002), and correlates with retinal ganglion cell loss and optic neuritis-related disability (Meyer et al., 2001). Neuronal overexpression of the anti-caspase factor Bcl-2 ameliorates EAE (Offen et al., 2000). Caspase 3 also has the ability to modulate Bcl2 and activate upstream caspases triggered by Fas (Woo et al., 1999), an apoptotic pathway implicated in EAE (Sabelko et al., 1997). Finally, CNS activation of caspases has been implicated in the progression of Alzheimer's disease (AD) (Pompl et al., 2003). Thus, the inventor proposes that blockade of neuronal caspase activation is a mechanism by which HDAC inhibitors ameliorate neuronal death in these disorders (EAE, ALS and AD).

The structures appear in SMILES notation. Marks after values point to notes of the source that are not given here.

As for `CC(/C=C/C(=O)NO)=C\[C@@H](C)C(=O)c1ccc(N(C)C)cc1` [TSA, Trichostatin A], the immunosuppression entry in assay [1] is recorded as “induces immunosuppression”. Further, in assay [2] (TSA 7.5 mg/kg/dose/d i.p. from day 4, P = 0.0011 vs vehicle), the “Mean % Days of Severity (mean % of days with scores ≧2)” value is reported as 33.9 ± 4.3** %. Further, the “Days of Onset (Clinical EAE)” value in assay [2] (TSA 7.5 mg/kg/dose/d i.p. from day 4, two separate exp. pooled) was 13 ± 0.5 days. The EAE clinical disability entry is “decrease in EAE clinical disability” in assay [2] and “effective in reducing EAE in mice” in assay [2] (listed as Trichostatin A). Besides, in assay [2] (clinical score scale 1-5, TSA 7.5 mg/kg/dose/d i.p. from day 4, P = 0.0036 vs vehicle), the “Mean Peak Remission Phase (mean of maximal score reached during remission)” value is 1.8 ± 0.1*. Also, the “Activated caspase 9, densitometry of western bands, brain tissue” value in assay [3] (intraperitoneal TSA vs vehicle-treated mice) is “decreased”. Besides, the “activation of caspases 3 and 9 in CNS tissue” value in assay [3] (intraperitoneal TSA, MS (EAE) mice, western analysis) is “decreased activation of caspases 3 and 9”.

These data come from patent publication US20040077591A1, “Histone deacetylase inhibitors for the treatment of multiple sclerosis, amyotrophic lateral sclerosis and Alzheimer's Disease” (The Brigham and Women's Hospital, Inc., priority 2002, published 2004).
